Several values for one entry are separate records, joined by “and”; a condition that tells them apart may be missing. Equal values may be shown once. Activity calls are given as the source filed them.
Legend:
HeLa = test: ATP-based viability loss in HeLa cells – cell-based, CellTiter-Glo luminescence, cherry-pick samples, cytotoxicity control for MITF activator project, dose response (AID 540259); type: functional; conditions: Homo sapiens
Escherichia coli [1] = test: microbe, parasite or virus in culture
[2] = HPDE-C7 pancreatic duct cell viability loss – fluorescence, HTS (AID 430); type: functional, cell-based; conditions: Homo sapiens
Escherichia coli [3] = test: microbe, parasite or virus in culture; remark: listed apart in the source
[4] = viability loss of HPDE-C7K cells – cell-based, fluorescence, HTS, primary screen (AID 431); type: functional; conditions: Homo sapiens
[5] = loss of viability in HepG2 cells – cell-based, CellTiter-Glo, cherry-picked, cytotoxicity control for Shn3 inhibitor project, dose response (AID 624134); type: functional
Tumor necrosis factor = Tumor necrosis factor (Homo sapiens, UniProt P01375); test: analog potency on TNFa NF-kB signaling – cell-based, revised, SAR follow-up (AID 2337); type: functional
HEK293 [6] = test: cells; type: functional, cell-based; conditions: Homo sapiens
[7] = HEK-293T viability loss, compound-treated – cell-based, uHTS hits, cytotoxicity control for B/T-cell NF-kB inhibitor project, dose response (AID 489019); type: functional;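 further: IC50 reflects cytotoxicity as loss of cell viability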
HEK293 [8] = test: cells; conditions: Homo sapiens
HEK293 [9] = test: NOD2 signaling inhibitors in MDP-stimulated cells, cell-based, uHTS, luminescence (AID 2001); type: functional; conditions: Homo sapiens
[10] = reduction of Shn3 3'UTR-driven luciferase in osteoblasts – cell-based, Clone20 osteoblasts, firefly luciferase, cherry-picked, dose response (AID 624132); type: functional;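 further: firefly luciferase luminescence from reporter carrying the Shn3 3'UTR in osteoblasts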
[11] = non-specific 3'UTR reporter inhibition in Clone20-Shn3RL – cell-based, Renilla luciferase, cherry-picked, counter-screen for Shn3 inhibitor project, dose response (AID 624133); type: functional
Jurkat = test: blockers of NF-kB activation in T cells – Jurkat, luciferase reporter, luminescence, B- and T-cell, dose response (AID 489004); type: functional, cell-based; conditions: Homo sapiens;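 further: NF-kB luciferase reporter Jurkat cells stimulated with PMA plus ionomycin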
HEK293 [12] = test: inhibition of NOD1-driven NF-kB reporter – cell-based, luminescence, uHTS, primary screen (AID 1578); type: functional; conditions: Homo sapiens
INS1 = test: INS-1E survival protection against cytokine death – cell-based, luminescence, retest, dose response (AID 449756); type: functional; conditions: Rattus norvegicus;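 further: cell death triggered by IL-1 beta plus TNF-alpha plus IFN-gamma mixture; protective hits raise ATP signal compared with cytokine alone wells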
HEK293 [13] = test: cells; type: functional, cell-based; conditions: Homo sapiens; remark: listed apart in the source
[14] = target: T1, Nucleotide-binding oligomerization domain-containing protein 1 (Homo sapiens, UniProt Q9Y239); test: blockers of NOD1 pathway activity – revised, SAR follow-up (AID 2333); type: functional
T1 sequence (Q9Y239 whole entry): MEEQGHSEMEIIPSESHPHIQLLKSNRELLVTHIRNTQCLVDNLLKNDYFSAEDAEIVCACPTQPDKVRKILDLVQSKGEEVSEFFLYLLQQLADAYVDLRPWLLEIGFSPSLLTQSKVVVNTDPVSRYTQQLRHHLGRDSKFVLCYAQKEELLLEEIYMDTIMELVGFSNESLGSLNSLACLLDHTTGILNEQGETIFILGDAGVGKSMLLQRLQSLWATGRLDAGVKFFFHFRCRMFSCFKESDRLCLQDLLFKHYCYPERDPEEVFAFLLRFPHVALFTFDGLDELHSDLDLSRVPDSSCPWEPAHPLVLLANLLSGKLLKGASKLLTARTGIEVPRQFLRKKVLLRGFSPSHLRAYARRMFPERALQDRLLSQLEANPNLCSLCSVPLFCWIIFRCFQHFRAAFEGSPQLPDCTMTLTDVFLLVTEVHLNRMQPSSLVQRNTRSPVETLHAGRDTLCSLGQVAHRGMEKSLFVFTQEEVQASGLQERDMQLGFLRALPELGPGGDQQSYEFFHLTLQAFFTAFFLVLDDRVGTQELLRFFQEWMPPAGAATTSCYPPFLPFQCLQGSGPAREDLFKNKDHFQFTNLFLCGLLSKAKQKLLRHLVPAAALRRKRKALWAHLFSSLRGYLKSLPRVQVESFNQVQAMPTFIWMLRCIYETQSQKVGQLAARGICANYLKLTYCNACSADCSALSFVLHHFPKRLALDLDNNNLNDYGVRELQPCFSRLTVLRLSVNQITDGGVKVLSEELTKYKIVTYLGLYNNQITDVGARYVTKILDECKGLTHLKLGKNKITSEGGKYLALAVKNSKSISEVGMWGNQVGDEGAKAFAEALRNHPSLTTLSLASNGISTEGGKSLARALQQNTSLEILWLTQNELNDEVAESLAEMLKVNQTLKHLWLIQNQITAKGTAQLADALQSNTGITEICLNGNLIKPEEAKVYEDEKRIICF

[15] = target: T2, COUP transcription factor 2 (Homo sapiens, UniProt P24468); test: Luminescence-based cell-based high throughput dose response assay to identify inhibitors of COUP-TFII (NR2F2).; type: functional;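 further: HEK293 cells transiently cotransfected with COUP-TFII expression vector and reporter; luciferase reporter luminescence driven by COUP-TFII from the pX2-168 reporter plasmid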
T2 sequence (P24468 whole entry): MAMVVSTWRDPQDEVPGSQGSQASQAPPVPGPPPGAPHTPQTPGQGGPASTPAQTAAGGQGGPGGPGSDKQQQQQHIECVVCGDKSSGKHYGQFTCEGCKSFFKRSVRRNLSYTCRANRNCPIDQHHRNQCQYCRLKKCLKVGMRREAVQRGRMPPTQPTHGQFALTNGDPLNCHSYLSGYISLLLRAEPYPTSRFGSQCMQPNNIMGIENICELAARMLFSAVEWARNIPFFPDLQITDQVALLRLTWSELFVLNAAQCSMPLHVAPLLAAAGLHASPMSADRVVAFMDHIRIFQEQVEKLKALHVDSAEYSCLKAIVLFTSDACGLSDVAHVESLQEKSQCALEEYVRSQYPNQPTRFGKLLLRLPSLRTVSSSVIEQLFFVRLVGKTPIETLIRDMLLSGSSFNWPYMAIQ

HEK293 [16] = test: cells; type: functional, cell-based; conditions: Homo sapiens; remark: listed apart in the source
[17] = target: Nucleotide-binding oligomerization domain-containing protein 2 (Homo sapiens, UniProt Q9HC29); test: inhibition of NOD2-driven NF-kB reporter – cell-based, luminescence, uHTS, HEK293 (AID 1566); type: functional
[18] = target: T3, Short transient receptor potential channel 4 (Mus musculus, UniProt Q9QUQ5); test: calcium entry via TRPC4 opening agents – cell-based, HEK293 TRPC4/mu-opioid, Fluo-4 calcium, dose response (AID 434937); type: functional
T3 sequence (Q9QUQ5 whole entry): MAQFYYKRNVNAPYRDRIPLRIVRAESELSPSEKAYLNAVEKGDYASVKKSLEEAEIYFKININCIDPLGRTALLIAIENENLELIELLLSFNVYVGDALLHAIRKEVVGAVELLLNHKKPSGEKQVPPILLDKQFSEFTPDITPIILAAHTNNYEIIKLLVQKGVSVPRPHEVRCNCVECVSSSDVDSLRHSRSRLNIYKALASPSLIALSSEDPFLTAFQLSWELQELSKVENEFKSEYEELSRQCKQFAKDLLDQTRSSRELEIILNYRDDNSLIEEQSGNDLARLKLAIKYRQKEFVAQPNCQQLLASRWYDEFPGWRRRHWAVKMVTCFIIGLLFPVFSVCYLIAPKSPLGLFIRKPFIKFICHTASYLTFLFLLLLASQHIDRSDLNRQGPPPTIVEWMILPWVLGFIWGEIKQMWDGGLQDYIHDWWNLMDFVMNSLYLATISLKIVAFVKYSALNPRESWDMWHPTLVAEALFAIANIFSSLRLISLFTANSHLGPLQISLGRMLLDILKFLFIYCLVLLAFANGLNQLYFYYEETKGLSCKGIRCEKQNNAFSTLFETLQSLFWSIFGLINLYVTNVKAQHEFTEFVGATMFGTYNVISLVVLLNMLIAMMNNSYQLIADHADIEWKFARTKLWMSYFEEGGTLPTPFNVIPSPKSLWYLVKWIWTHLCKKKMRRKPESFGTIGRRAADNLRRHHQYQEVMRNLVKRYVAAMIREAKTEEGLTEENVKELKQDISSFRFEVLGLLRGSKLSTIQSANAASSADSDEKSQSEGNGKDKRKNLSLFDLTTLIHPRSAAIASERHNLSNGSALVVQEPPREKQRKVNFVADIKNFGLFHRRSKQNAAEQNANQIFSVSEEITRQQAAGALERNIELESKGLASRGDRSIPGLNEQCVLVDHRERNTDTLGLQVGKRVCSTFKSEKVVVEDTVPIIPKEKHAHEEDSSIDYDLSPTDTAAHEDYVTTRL

[19] = target: T3, Short transient receptor potential channel 4; test: block of DAMGO-driven TRPC4 calcium entry – cell-based, HEK293 TRPC4/mu-opioid, Fluo-4 calcium, dose response (AID 434942); type: functional;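 further: potency of inhibitors blocking the TRPC4 calcium response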

Tumor necrosis factor, sequence (P01375 whole entry): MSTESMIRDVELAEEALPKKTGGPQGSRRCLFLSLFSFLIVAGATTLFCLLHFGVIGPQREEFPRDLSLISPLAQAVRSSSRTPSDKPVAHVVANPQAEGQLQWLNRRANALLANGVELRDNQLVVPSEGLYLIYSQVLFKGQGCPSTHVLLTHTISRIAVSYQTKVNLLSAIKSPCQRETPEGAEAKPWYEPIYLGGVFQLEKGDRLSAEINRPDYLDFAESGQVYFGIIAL
Nucleotide-binding oligomerization domain-containing protein 2, sequence (Q9HC29 whole entry, the tested form may be a part): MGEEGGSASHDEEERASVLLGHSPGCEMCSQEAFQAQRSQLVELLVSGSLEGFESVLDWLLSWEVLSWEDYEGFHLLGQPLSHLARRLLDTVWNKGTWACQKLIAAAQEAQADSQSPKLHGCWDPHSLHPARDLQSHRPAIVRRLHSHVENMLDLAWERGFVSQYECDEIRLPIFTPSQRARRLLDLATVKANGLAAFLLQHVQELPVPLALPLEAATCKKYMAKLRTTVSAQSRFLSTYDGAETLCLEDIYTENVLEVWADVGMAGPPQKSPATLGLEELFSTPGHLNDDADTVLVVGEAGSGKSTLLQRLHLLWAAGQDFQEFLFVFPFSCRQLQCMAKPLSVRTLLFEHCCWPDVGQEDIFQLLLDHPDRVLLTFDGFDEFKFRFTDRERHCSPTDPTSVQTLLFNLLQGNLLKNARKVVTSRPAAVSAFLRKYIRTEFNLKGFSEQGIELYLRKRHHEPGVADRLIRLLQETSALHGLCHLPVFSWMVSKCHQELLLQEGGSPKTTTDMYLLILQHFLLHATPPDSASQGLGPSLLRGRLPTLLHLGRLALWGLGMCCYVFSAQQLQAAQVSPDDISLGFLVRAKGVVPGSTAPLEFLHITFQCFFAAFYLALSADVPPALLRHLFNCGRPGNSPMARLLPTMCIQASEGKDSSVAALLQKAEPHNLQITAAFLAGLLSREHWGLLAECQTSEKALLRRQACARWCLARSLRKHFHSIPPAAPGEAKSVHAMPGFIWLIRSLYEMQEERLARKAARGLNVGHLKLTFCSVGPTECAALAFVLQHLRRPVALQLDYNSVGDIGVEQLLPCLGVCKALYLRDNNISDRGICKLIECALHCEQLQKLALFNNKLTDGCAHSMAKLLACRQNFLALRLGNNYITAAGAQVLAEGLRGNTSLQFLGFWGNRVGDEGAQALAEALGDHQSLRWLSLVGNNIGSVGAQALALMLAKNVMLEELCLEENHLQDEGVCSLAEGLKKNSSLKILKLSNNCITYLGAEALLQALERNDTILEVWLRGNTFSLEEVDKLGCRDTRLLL

## COc1ccccc1OCc1cc(-c2ccccc2)no1
HeLa
  AC50: 48 µM (active)

## CCOC(=O)CC(=O)Nc1ccccc1C(=O)O
Escherichia coli [1]
  AC50: 27 µM (active)

## CC(C)CCNC(=O)c1c(N)n(CC2CCCO2)c2nc3ccccc3nc12 (centres undefined)
[2]
  EC50: 13.2 µM (active)
Escherichia coli [3]
  AC50: 16.3 µM (active)
[4]
  EC50: 13.6 µM (active)

## Cn1nccc1C(=O)NC1CCCc2c1cnn2-c1ccccc1F (centres undefined)
[5]
  AC50: 0.472 µM (active)
Tumor necrosis factor
  IC50: 4.28 µM (active) and 14.6 µM (active)
HEK293 [6]
  IC50: 2.36 µM (active)
[7]
  IC50: > 80 µM (inactive)
HEK293 [8]
  IC50: > 20 µM (inactive)
HEK293 [9]
  IC50: 2.71 µM (active)
[10]
  AC50: 0.37 µM (active)
[11]
  AC50: 3.96 µM (active)
Jurkat
  IC50: > 80 µM (inactive)
HEK293 [12]
  EC50: 0.62 µM (active)
INS1
  AC50: 2.26 µM (active)
HEK293 [13]
  IC50: 13.8 µM (active)
[14]
  IC50: 968 nM (active) and 825 nM (active)
[15]
  IC50: 1.51 µM (active)
HEK293 [16]
  IC50: > 20 µM (inactive)
[17]
  EC50: 0.61 µM (active)

## CN(C)C(CNC(=O)c1cc2ccccc2oc1=O)c1ccccc1 (centres undefined)
[18]
  EC50: 0.299 µM (active)
HeLa
  AC50: 240 µM (active)
[19]
  EC50: 0.149 µM (active)

Source: ChEMBL document CHEMBL1201862, “PubChem BioAssay data set” (2004)
